Assays:
[1] = system: lens from aged mice; assay: In vitro lens elasticity, coverslip method, cultured lenses from aged mice; assay type: cell-based, C57BL/6J mice; conditions: for Change in Diameter (μm) (Mean ± S.E.): about 14 hours incubation at 37° C., mouse lens; for efficacy compared with positive control groups using lipoic acid: 50 μM and 500 μM; for lens elasticity relative to control: both concentrations of 50 μM and 500 μM; for dose dependence of elasticity increase: from the lower dose (50 μM) to the higher dose (500 μM)
Experimental: Test compounds (Examples 46 and 134) at 50 μM and 500 μM, Positive Control of Lipoic Acid at 50 μM and 500 μM, and control treatment were administered to lenses (12 per group) according to methods described in Invest Ophthalmol Vis Sci. 2016; 57:2851-2863. Briefly, seven month old C57BL/6J mice (male) were euthanized by CO2 overdose. Lenses were removed and placed in culture medium. Lenses were incubated for about 2 hours at 37° C. The medium was replaced with fresh medium supplemented with test compounds or with fresh medium. After about 14 hours incubation at 37° C., lenses were removed from culture medium.
(§1) Measurement of lens elasticity was performed according to the methods described in Invest Ophthalmol Vis Sci. 2016; 57:2851-2863. Briefly, lenses were placed on slides and photographed. A second photograph was taken after a coverslip was placed on the lens. Equatorial diameters changed by the coverslips placed on the lens were analyzed.

[2] = system: mouse lens; assay: Lens elasticity under 2-week repeated topical instillation (TID), coverslip method; assay type: in vivo, C57BL/6J mice; conditions: for Right Eye Change in Diameter (μm) (Mean ± S.E.): treated right eye; for Right Eye Change in Diameter (μm) (Mean ± S.E.) / efficacy compared with 1.5% solutions comprising LACE: TID; for Right Eye Change in Diameter (μm) (Mean ± S.E.) / efficacy compared with 1.5% solutions comprising LACE / elasticity of the mouse lenses: 2 weeks; for efficacy compared with 1.5% solutions comprising LACE: 0.5% and 1.5% solutions; for elasticity of the mouse lenses: repeated instillation of 0.15%, 0.5%, 1.5% solutions TID
Experimental: Test compounds (Examples 46 and 134), positive control of Lipoic Acid Choline Ester (LACE), and control treatment were topically administered to right eyes according to methods described in Invest Ophthalmol Vis Sci. 2016; 57:2851-2863. Briefly, eight month old C57BL/6J mice (male) were treated with 2.5 μL of each test sample three times per day (TID) at about 4-hour intervals in the right eyes for 2 weeks. The left eyes were used as untreated controls. Each treatment group included 10 mice, and the vehicle group included 5 mice.
as §1, with “after 2-week treatment, mice were euthanized by CO2 overdose. Lenses were removed and analyzed for changes in elasticity. Lenses” for “lenses”

[3] = Table 2, left eye = untreated control eye of mice given 1.5% solution in right eye
[4] = Table 3, left eye = untreated control eye of mice given 1.5% solution in right eye

Row | Compound | Change in Diameter (μm) (Mean ± S.E.) ([1]; 50 μM) | Change in Diameter (μm) (Mean ± S.E.) ([1]; 500 μM) | Right Eye Change in Diameter (μm) (Mean ± S.E.) ([2]; Table 2, 1.5% solution) | Left Eye Change in Diameter (μm) (Mean ± S.E.) [2, 3] | Right Eye Change in Diameter (μm) (Mean ± S.E.) ([2]; Table 3, 1.5% solution) | Left Eye Change in Diameter (μm) (Mean ± S.E.) [2, 4] | efficacy compared with positive control groups using lipoic acid [1] | lens elasticity relative to control [1] | dose dependence of elasticity increase [1] | efficacy compared with 1.5% solutions comprising LACE [2] | Right Eye Change in Diameter (μm) (Mean ± S.E.) ([2]; Table 2, 0.15% solution) | Right Eye Change in Diameter (μm) (Mean ± S.E.) ([2]; Table 2, 0.5% solution) | Left Eye Change in Diameter (μm) (Mean ± S.E.) ([2]; Table 2, left eye = untreated control eye of mice given 0.15% solution in right eye) | Left Eye Change in Diameter (μm) (Mean ± S.E.) ([2]; Table 2, left eye = untreated control eye of mice given 0.5% solution in right eye) | elasticity of the mouse lenses [2] | Right Eye Change in Diameter (μm) (Mean ± S.E.) ([2]; Table 3, 0.15% solution) | Right Eye Change in Diameter (μm) (Mean ± S.E.) ([2]; Table 3, 0.5% solution) | Left Eye Change in Diameter (μm) (Mean ± S.E.) ([2]; Table 3, left eye = untreated control eye of mice given 0.15% solution in right eye) | Left Eye Change in Diameter (μm) (Mean ± S.E.) ([2]; Table 3, left eye = untreated control eye of mice given 0.5% solution in right eye)
1 | O=C(O)CCCC[C@@H]1CCSS1 (racemic) [Lipoic Acid, reference compound] | 63.8 ± 6.5 | 83.8 ± 7.4 | – | – | – | – | – | – | – | – | – | – | – | – | – | – | – | – | –
2 | C[N+](C)(C)CCOC(=O)CCCC[C@@H]1CCSS1 [LACE, Lipoic Acid Choline Ester, reference compound] | – | – | 64.5 ± 4.5 | 41.5 ± 5.2 | 60.8 ± 2.9 | 30.1 ± 6.0 | – | – | – | – | – | – | – | – | – | – | – | – | –
3 | CN(C)C(=O)CNC(=O)c1ccc2c(c1)nc(Nc1nc3ccc(C(F)(F)F)cc3s1)n2C [Example 134, 1-Methyl-2-(6-trifluoromethyl-benzothiazol-2-ylamino)-1H-benzimidazole-5-carboxylic acid dimethylcarbamoylmethyl-amide] | 59.6 ± 3.4 | 72.3 ± 4.0 | 80.0 ± 5.3 | 39.7 ± 6.5 | – | – | almost the same | significantly increased | dose dependent increase | better than or equivalent to | 46.0 ± 5.0 | 74.3 ± 8.3 | 33.5 ± 5.9 | 51.7 ± 5.3 | significantly increased | – | – | – | –
4 | Cn1c(Nc2nc3ccc(OC(F)(F)F)cc3s2)nc2cc(C(=O)NCCOCCO)ccc21 [Example 46, 1-Methyl-2-(6-trifluoromethoxy-benzothiazol-2-ylamino)-1H-benzoimidazole-5-carboxylic acid [2-(2-hydroxy-ethoxy)-ethyl]-amide] | 67.4 ± 5.6 | 80.4 ± 5.3 | – | – | 62.7 ± 3.4 | 41.3 ± 3.9 | almost the same | significantly increased | dose dependent increase | better than or equivalent to | – | – | – | – | significantly increased | 42.3 ± 4.0 | 63.2 ± 5.4 | 32.2 ± 4.3 | 34.7 ± 4.5

From patent US20230093476A1, “SUBSTITUTED FUSED IMIDAZOLE DERIVATIVES AND METHODS OF TREATING REFRACTIVE OCULAR DISORDERS” (vTv Therapeutics LLC, priority 2020, published 2023)
